Tests used:
GluA1 = assay: BS3 crosslinking assay / Western blot of GluA1 subunit; assay type: in vivo, mouse; conditions: HFD-fed mice treated with PER, n=4; HFD gave 3-fold increase vs CD
Procedure: Crosslinking using the BS^3 procedure carried out here was carried out based on previously described methods (60). Hippocampal slices of 17 to 18 week old male C57BL/6J background mice (CD, HFD, and HFD with PER treatment) or 12 to 13 week old ob/ob mice (ob/ob, and ob/ob with PER treatment) were prepared as previously reported (56, 57). Hippocampal slices were prepared and collected, and then CA1, CA2, CA3, DG, and EC regions were separated from the hippocampal slices using a dissection knife. […] The total protein concentration of the lysate was measured using the Lowry method (61). […] BS^3 samples were analyzed by SDS-PAGE directly without purification, and surface and intracellular bands were measured in the same lane, thus no normalization was required and sample throughput was improved. […] Membranes were incubated with HRP-labeled anti-rabbit IgG (1:3,000, Cell Signaling Technology, Danvers, MA, USA) for 30 min and extensively washed again with TBS-T. After soaking the membrane in the chemiluminescence detection substrate Chemi-Lumi One (Nacalai Tesque, Tokyo, Japan) for 1 min, luminescence was detected using a LuminoGraph1 imaging system (Atto, Tokyo, Japan). The surface and intracellular bands of each lane were analyzed using a CS Analyzer (Atto, Tokyo, Japan). […]

NL-G-F(−/−) mice = assay: Hippocampus function-dependent fear conditioning test in NL-G-F(−/−) mice; assay type: in vivo, mouse; conditions: perampanel alone 5 mg/kg or 10 mg/kg
Procedure: Contextual fear conditioning was applied with slight modifications to published protocols (50). Mice were transferred to the animal experimental room and allowed to acclimatize for at least 30 minutes prior to contextual fear conditioning training. Next, the mice were placed in a foot shock system model MK-450 MSQ (Muromachi Kikai Co., Ltd., Japan), searching was performed for 2 minutes, and then 3 electric foot shocks (0.8 mA, 2 sec, 2 min interval) were performed. After mice were left in the apparatus for an additional 1 minute, the animals were removed.
NL-G-F(−/−) mice, a dementia model, were administered with memantine (mema), exercise, memantine and exercise, memantine and perampanel, and perampanel alone (5 mg/kg or 10 mg/kg), and subjected to behavioral experiments. As the behavior test, a novel object recognition test and a hippocampus function-dependent fear conditioning test were performed. Memantine is an antagonist of the NMDA receptor, but has distinct properties from other NMDA receptor antagonists (refer to Hokama Y., et al., Neuro Oncology, 2022, noac162). That is, memantine is a drug that works only when glutamic acid is excessively present in the brain.

Aβ = Aβ staining of neurosphere culture; assay type: cell-based, mouse; conditions: neurospheres from NL-G-F(−/−) mice, fourth day of culture, perampanel group
[1] = system: hippocampus and body weight of a person; assay: Perampanel in an obese person: brain MRI, body weight, BMI; assay type: in vivo, human; conditions: for BMI: 26 w after surgery / 26 weeks of PER administration, before: 37.7
Procedure: The effect of an AMPA receptor antagonist on the hippocampus and body weight of a person with a BMI value of 38 was investigated. A person had quadriplegia and respiratory disorders due to a large foramen magnum tumor. After the tumor extraction, anti-epileptic treatment was performed. As an anti-epileptic treatment, 2 mg/day (thereafter, the dose was changed to 4 mg/day) of perampanel was orally administered. The transition of the body weight and the Fugl-meyer assessment score of the lower limb was observed. In addition, the size of the hippocampus was evaluated from MRI of the brain of the at 26 weeks after surgery.

HFD-fed mice = assay: Five-trial social memory assay; assay type: in vivo, mouse; conditions: PER treatment
Procedure: Five-trial social tests were performed as previously described (19). In summary, subject mice with CD, HFD, and HFD with PER treatment were housed individually starting 7 days before the study to establish territory dominance. On the day of the test, a female mouse was presented in the cages of subject male mice, which is a subject (FIG. 2G), and 5 min trials were performed 4 times in succession at 10 min intervals. In the fifth trial, a novel female mouse was presented (FIG. 2G) and the duration of the social investigation was recorded.

SMILES: N#Cc1ccccc1-c1cc(-c2ccccn2)cn(-c2ccccc2)c1=O [PER, 3-(2-cyanophenyl)-5-(2-pyridyl)-1-phenyl-1,2-dihydropyridine-2-one]
- GluA1 in CA3 (BS3 crosslinking) (GluA1): reduced GluA1 to basal levels
- cognitive function in hippocampus function-dependent fear conditioning test (NL-G-F(−/−) mice): remarkable improvement in cognitive function
- Aβ staining of culture (Aβ): decrease in Aβ
- body weight of the person ([1]; obese person after administration): decreased smoothly
- BMI ([1]; obese person): 31
- BMI ([1]; obese person, listed as AMPA receptor antagonist): 33.4
- gray matter/TIV ([1]; obese person, 26 w after surgery, oral perampanel 2 then 4 mg/day): 0.50 L/L
- size of the hippocampus (MRI) ([1]; obese person, 26 weeks after surgery, PER administration): clearly increased
- social memory (HFD-fed mice): restored social memory disturbance

— US20240398775A1, “PHARMACEUTICAL COMPOSITION FOR USE IN TREATING COGNITIVE DECLINE OR FOR USE IN TREATING OVERWEIGHT OR OBESITY” (University of the Ryukyus, priority 2021, published 2024)
